Measurements as given in patent EP4729518A1, “CRYSTAL FORM OF METHIONINE ADENOSYLTRANSFERASE 2A HETEROCYCLIC INHIBITOR, PREPARATION METHOD THEREFOR, AND USE THEREOF” (Nanjing Chia Tai Tianqing Pharmaceutical Co., Ltd., priority 2023, dated 2024).
In brackets after ≈: the same amount, converted by molar mass. Where two headings read alike, the source gives them in different places.

Experiments:
[1] = Heating experiment via DSC followed by XRD; format: physicochemical; settings: Heating temperature 110 °C
Text: The heated samples were then collected and subjected to XRD analysis. Table 27: Summary of heating test results for various crystal forms

[2] = Room-temperature solubility in solvents; format: physicochemical; settings: thermodynamic from solid, read-out: Solubility S
Description: Determination of the solubility of the crystal form G was conducted in 20 selected solvents at room temperature. A sample (about 2 mg) was weighed and added to a 3-mL vial, and the corresponding solvent listed in Table 29 below was added (100 µL each time) until the solid was dissolved. If the solid was still not completely dissolved after 2 mL of the solvent was added, further addition was stopped. The solubility range in the corresponding solvent was calculated according to the mass of the sample and the volume of the solvent. Table 29: Solubility ranges of crystal form G at room temperature

[3] = Dynamic solubility in buffers and water (HPLC, XRD of remaining solid); format: physicochemical; settings: 37 °C; for solubility at 1 h / solubility at 4 h / solubility at 24 h: thermodynamic from solid, feed concentration 10 mg/mL
Description: 2.1. Hydrochloric acid solution at pH 1.0: A specified amount (9.00 mL) of hydrochloric acid was taken, diluted to 1000 mL with water, and shaken well to give the desired solution.
0.2 mol/L potassium dihydrogen phosphate solution: 27.22 g of potassium dihydrogen phosphate was taken, and dissolved and diluted to 1000 mL with water.
0.2 mol/L sodium hydroxide solution: 8.00 g of sodium hydroxide was taken, and dissolved and diluted to 1000 mL with water.
250 mL of a 0.2 mol/L potassium dihydrogen phosphate solution was taken and mixed with the specified amount of a 0.2 mol/L sodium hydroxide solution indicated in the table below. Then, the mixture was diluted to 1000 mL with water and shaken well to give the desired solution. Table 23: Phosphate buffer
Determination of the 1-, 4-, and 24-hour solubilities of the sample in four solvent systems (pH 1.0 buffer, pH 4.5 buffer, pH 6.8 buffer, and water) was conducted with a feed concentration of 10 mg/mL by shaking (400 rpm) at 37 °C. At each time point, a sample was taken, centrifuged (10000 rpm, 2 min), and filtered (through a 0.22 µm PTFE filter membrane, with the initial filtrate discarded). The HPLC concentration of the filtrate was then determined, and the remaining solid was subjected to XRD analysis. Table 30. Summary of dynamic solubility test results for crystal form G

[4] = target: T1, MAT2A enzyme (Homo sapiens, UniProt P31153); test: MAT2A enzymatic assay (Biomol Green, OD620); format: biochemical
T1 construct: purchased BPS 71401
Description: • a) First, a 5× MAT2A assay buffer (250 mM Tris-HCl, pH 8.0; 250 mM KCl; 75 mM MgCl2; 0.025% BSA; 0.05% Brij35; 1.5 mM EDTA) was prepared and partially diluted to 1× for later use. • b) Preparation and addition of MAT2A enzyme (BPS, 71401): The MAT2A enzyme was diluted to 3.674 ng/µL (1.67×, final concentration: 2.20 ng/µL) with the 1× MAT2A assay buffer. Using a BioTek (MultiFlo FX) automated dispenser, the 1.67× MAT2A enzyme solution was added to the compound test wells and negative control wells of a plate at 15 µL/well, and meanwhile, the 1× MAT2A assay buffer was added to the blank control wells at 15 µL/well. • c) Preparation and addition of compounds: The test compound was diluted from a 10 mM stock solution to 100 µM with DMSO, and the positive control drug AGI-24512 was diluted under the same conditions. Using a Tecan compound dispenser (D300e), the dilutions were automatically dispensed into each well according to a preset concentration gradient. The dispensed volume was minimal and considered negligible. The concentration gradient started at 1 µM (1/2 log dilution), and a total of 8 gradient points were set. The plate was centrifuged at 2500 rpm for 30 s and incubated at 25 °C for 30 min. • d) Preparation of ATP: 10 mM ATP (Sigma, A7699) was diluted to 700 µM with the 1× MAT2A assay buffer for later use. • e) Preparation and addition of mixed solution of substrate and ATP: A mixed solution was prepared containing the 5× MAT2A assay buffer (3 µL/well), 750 µM L-methionine (Adamas, 01100469) (2.5 µL/well), 700 µM ATP (2.5 µL/well), and double distilled water (2 µL/well). The total amount of the required mixed solution was prepared according to the number of detection wells. Using a BioTek (MultiFlo FX) automated dispenser, the mixed solution was added at 10 µL/well. The resulting mixture was centrifuged at 2500 rpm for 30 s and allowed to react at 25 °C for 150 min. • f) Addition of Biomol Green detection reagent: Using a BioTek (MultiFlo FX) automated dispenser, Biomol Green (Enzo, BML-AK111) was added at 50 µL/well. The plate was centrifuged at 2500 rpm for 30 s and incubated at 25 °C for 20 min. • g) After the reaction was completed, the OD620 values were measured using a Perkin Elmer (Envision 2105) multimode microplate reader.
The inhibition rate was calculated using the following formula: Inhibition rate % = (ODmax −ODsample)/(ODmax −ODmin) × 100% [formula] where: • ODsample represents the OD620 value of the sample well; • ODmin represents the mean OD620 value of the blank control wells containing no enzyme and no test compound; • ODmax represents the mean OD620 value of the negative control wells containing enzyme but no compound. […]

T1 sequence (P31153 whole entry): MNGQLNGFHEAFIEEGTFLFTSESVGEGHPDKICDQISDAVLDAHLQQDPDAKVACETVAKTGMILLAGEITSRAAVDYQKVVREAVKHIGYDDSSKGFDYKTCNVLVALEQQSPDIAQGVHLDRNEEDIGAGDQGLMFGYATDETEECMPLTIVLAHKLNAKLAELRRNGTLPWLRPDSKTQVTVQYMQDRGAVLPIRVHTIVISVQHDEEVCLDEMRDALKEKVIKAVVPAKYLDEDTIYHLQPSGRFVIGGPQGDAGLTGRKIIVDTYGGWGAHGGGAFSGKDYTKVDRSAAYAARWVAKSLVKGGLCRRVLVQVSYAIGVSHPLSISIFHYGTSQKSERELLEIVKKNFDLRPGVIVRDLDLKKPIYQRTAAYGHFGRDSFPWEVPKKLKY

## Cn1cc2cc(-c3nn4ccc(C5CC5)nc4c(-c4ccc(OC(F)F)cc4)c3=O)ccc2n1 [Crystal form G, 2-cyclopropyl-9-[4-(difluoromethoxy)phenyl]-7-(2-methyl-2H-indazol-5-yl)-8H-pyrimido[1,2-b]pyridazin-8-one]
[1]
  After heating (crystal form): Crystal form A
[2]; organic solvent or mixture, 1,4-Dioxane, room temperature
  solubility: 4800 to 6300 µg/mL (≈ 10400 to 13700 µM)
[2]; organic solvent or mixture, ACN, room temperature
  solubility: ~1100 µg/mL (≈ 2390 µM)
[2]; organic solvent or mixture, ACN/H2O (10:1), room temperature
  solubility: < 1100 µg/mL
[2]; organic solvent or mixture, Acetone, room temperature
  solubility: ~1000 µg/mL (≈ 2180 µM)
[2]; organic solvent or mixture, CHCl3, room temperature
  solubility: > 10500 µg/mL
[2]; organic solvent or mixture, DCM, room temperature
  solubility: 1900 to 2300 µg/mL (≈ 4140 to 5010 µM)
[2]; organic solvent or mixture, DMAc, room temperature
  solubility: > 40000 µg/mL
[2]; organic solvent or mixture, DMF, room temperature
  solubility: 21000 to 42000 µg/mL (≈ 45700 to 91400 µM)
[2]; organic solvent or mixture, DMSO, room temperature
  solubility: 9500 to 19000 µg/mL (≈ 20700 to 41400 µM)
[2]; organic solvent or mixture, EtOAc, room temperature
  solubility: 1100 to 2200 µg/mL (≈ 2390 to 4790 µM)
[2]; organic solvent or mixture, EtOH, room temperature
  solubility: ~1200 µg/mL (≈ 2610 µM)
[2]; organic solvent or mixture, IPA, room temperature
  solubility: ~1000 µg/mL (≈ 2180 µM)
[2]; organic solvent or mixture, IPAc, room temperature
  solubility: ~1100 µg/mL (≈ 2390 µM)
[2]; organic solvent or mixture, MEK, room temperature
  solubility: 5300 to 10500 µg/mL (≈ 11500 to 22900 µM)
[2]; organic solvent or mixture, MIBK, room temperature
  solubility: 2000 to 2500 µg/mL (≈ 4350 to 5440 µM)
[2]; organic solvent or mixture, MTBE, room temperature
  solubility: < 1100 µg/mL
[2]; organic solvent or mixture, MeOH, room temperature
  solubility: 3710 to 5500 µg/mL (≈ 8070 to 12000 µM)
[2]; organic solvent or mixture, MeOH/DCM (1:1), room temperature
  solubility: 5000 to 10000 µg/mL (≈ 10900 to 21800 µM)
[2]; organic solvent or mixture, THF, room temperature
  solubility: 7000 to 10500 µg/mL (≈ 15200 to 22900 µM)
[2]; water, H2O, room temperature
  solubility: < 1100 µg/mL
[3]; H2O, 1 h
  Crystal form change: Yes
[3]; H2O, 4 h
  Crystal form change: Yes
[3]; H2O, 24 h
  Crystal form change: Yes
[3]; pH 1.0, 1 h
  Crystal form change: Yes
[3]; pH 1.0, 4 h
  Crystal form change: Yes
[3]; pH 1.0, 24 h
  Crystal form change: Yes
[3]; pH 1.0 buffer, simulated gastric fluid, pH 1.0, 1 h
  solubility at 1 h: 0.32 µg/mL (≈ 0.696 µM)
[3]; pH 1.0 buffer, simulated gastric fluid, pH 1.0, 4 h
  solubility at 4 h: 0.16 µg/mL (≈ 0.348 µM)
[3]; pH 1.0 buffer, simulated gastric fluid, pH 1.0, 24 h
  solubility at 24 h: 0.12 µg/mL (≈ 0.261 µM)
[3]; pH 4.5, 1 h
  Crystal form change: Yes
[3]; pH 4.5, 4 h
  Crystal form change: Yes
[3]; pH 4.5, 24 h
  Crystal form change: Yes
[3]; pH 4.5 buffer, aqueous buffer, pH 4.5, 4 h
  solubility at 4 h: 0.07 µg/mL (≈ 0.152 µM)
[3]; pH 4.5 buffer, aqueous buffer, pH 4.5, 24 h
  solubility at 24 h: 0.08 µg/mL (≈ 0.174 µM)
[3]; pH 6.8, 1 h
  Crystal form change: Yes
[3]; pH 6.8, 4 h
  Crystal form change: Yes
[3]; pH 6.8, 24 h
  Crystal form change: Yes
[3]; pH 6.8 buffer, aqueous buffer, pH 6.8, 24 h
  solubility at 24 h: 0.06 µg/mL (≈ 0.131 µM)
[3]; water, H2O, 1 h
  solubility at 1 h: 0.13 µg/mL (≈ 0.283 µM)
[3]; water, H2O, 4 h
  solubility at 4 h: 0.09 µg/mL (≈ 0.196 µM)

## Cc1[nH]c2c(N3CCCCC3)c(-c3ccccc3)nn2c(=O)c1-c1ccc(O)cc1 [AGI-24512, reference compound]
[4]
  IC50: 0.0268 µM
